From patent US8129340B2, “Inhibitors of protein phosphatase 1, GADD34 and protein phosphatase 1/GADD34 complex, preparation and uses thereof” (Institut Gustave Roussy, priority 2006, dated 2012)
Peptide text beside a SMILES is read from it. * marks the point of attachment. Cbz = O=C(OCc1ccccc1)*; CH2F = FC*

Key:
[1] = tested on: CT26 tumour cells; test: Anti-tumour vaccination: dying treated CT26 cells injected in one flank, later challenge with live tumour cells; format: in vivo, BALB/c mice
[2] = tested on: calreticulin; test: Calreticulin exposure by immunofluorescence staining and flow cytometry, HCT116 cells; format: cell-based, human; settings: 2 hours
Experimental: (§1) HCT116 cells (FIG. 7A) or CT26 cells (FIG. 7B) were cultured in complete mediums supplemented with 10% fetal calf serum alone or in the presence of the control peptide (VKKKKIKREIKI-lkaravafsekv) (SEQ ID NO: 17) or the PP1/GADD34 inhibitory peptide (VKKKKIKREIKI-lkarkvrfsekv, SEQ ID NO: 4. denominated PP1 peptide) for 2 hours. Cells were washed twice with PBS and fixed in PFA (4% w/v) for 5 min. Cells were stained with an antibody against calreticulin (pAb from Abeam, ab2907) at 1:200 dilution or isotype control, in staining buffer (PBS, 1% FCS) for 30 min on ice, followed by washing. An anti-rabbit Alexa fluor 488 immunoglobulin conjugate (Molecular Probes-Invitrogen) diluted at 1:500 was added for an additional 30 min on ice before washing and analysed by flow cytometry (FACScan, Becton Dickinson). Propidium Iodide (50 μg/ml, Becton Dickinson) was added to the samples to label and exclude permeabilized (dead) cells.

[3] = tested on: calreticulin; test: Calreticulin exposure by immunofluorescence staining and flow cytometry, CT26 cells (peptide test); format: cell-based, murine; settings: 2 hours
Experimental: as §1

[4] = tested on: cell surface CRT; test: Fluorescence detection of cell surface CRT on CT26 cells (cytofluorometry); format: cell-based, murine; settings: agent alone; for induction of ecto-CRT and/or ecto-Erp57: tumour cells
Experimental: FIG. 1SA, FIG. 1SB: Kinetics of CRT exposure. CT26 cells were treated with mitoxantrone for the indicated period, followed by immunofluorescence staining with a CRT-specific antibody and cytofluorometric analysis.
FIG. 2E: Correlation between CRT exposure and immunogenicity. The surface exposure of CRT was determined by immunofluorescence cytometry while gating on viable (propidium iodine-negative) cells (inserts) and was correlated with the immunogenicity of cell death (as determined in FIG. 1). CO, control; Tg, thapsigargin; Tu, tunicamycin.
FIG. 5E: Kinetics of CRT exposure determined by FACS analysis after incubation of cells with the indicated agents.
FIG. 5F-FIG. 5G: PP1/GADD34 inhibitors render cell immunogenic via CRT. Tumour cells were first transfected with a control siRNA or a CRT-specific siRNA and then treated in vitro with etoposide, alone or in combination with PP1/GADD34 inhibitors. […] The results represent the % of tumour free mice (comprising a total of 12 to 18 mice per group).
CT26 cells (on a glass slide or in 12-well plates) were first washed with FACS buffer (1×PBS, 5% fetus bovine serum, and 0.1% sodium azide) and then incubated with rabbit anti-mouse CRT antibody (1:100, Stressgen) in FACS buffer at 4° C. for 30 min. Cells reacted with anti-rabbit IgG (H+L) Alexa fluor 488-conjugates (1:500) in FACS buffer at 4° C. for 30 min. After washing three times with FACS buffer, surface CRT was detected by cytofluorometric analysis on a FACS Vantage. In some experiments, cells were fixed with 4% paraformaldehyde, counterstained with Hoechst (2 μM; Sigma), followed by fluorescence microscopic assessment with a Leica IRE2 microscope equipped with a DC300F camera.

[5] = tested on: CT26 tumours; test: Intratumoural treatment of established CT26 tumours in immunocompetent mice; format: in vivo, BALB/c mice (wild type); settings: mouse, in vivo
[6] = tested on: CT26 tumours; test: Intratumoural treatment of established CT26 tumours in immunodeficient mice; format: in vivo, athymic nu/nu Balb/c mice; settings: mouse, in vivo
[7] = tested on: CT26 colon cancer cells; test: In vivo anti-cancer vaccination: treated tumour cells in one flank and live tumour cells in opposite flank simultaneously; set-up: species or system BALB/c mice
Experimental: FIG. 4A: In vivo anti-cancer vaccination depends on CRT. CT26 colon cancer cells were transfected with the indicated siRNAs, then treated with rCRT and/or mitoxantrone (as in FIG. 3D) and the anti-tumour response was measured by simultaneously challenging BALB/c mice with mitoxantrone treated tumour cells in one flank and untreated live tumour cells in the opposite flank.
FIG. 4D: CRT-mediated amelioration of the immune response against etoposide-treated tumour cells. CT26 cells were treated for 24 h with etoposide (or PBS) and rCRT was optionally absorbed to the cell surface (inserts), followed by simultaneous injection of the etoposide ±rCRT-treated tumour cells and live tumour cells in opposite flanks and monitoring of tumour growth.
(§2) Tumours were evaluated weekly, using a caliper.

[8] = tested on: CT26 cells; test: Phagocytosis of CT26 tumour cells by dendritic cells (FACS, double positive cells); format: cell-based, BALB/c mice; settings: cells transfected with siRNA
Experimental: FIG. 3A, FIG. 3B: Correlation between tumour cell phagocytosis and CRT exposure. Tumour cells labelled with Cell Tracker Green were cultured with CD11c-expressing DC and the percentage of DC taking up tumour cells was determined (A) and correlated with the CRT surface exposure (B), measured as in FIG. 2E.
Mitoxantrone-treated or control cells were incubated with a blocking chicken anti-CRT antibody, followed by detection of phagocytosis by CD.
Cells were transfected with the indicated siRNAs and optionally treated with rCRT, followed by immunoblot (FIG. 3D) detection of surface CRT (FIG. 3E) and phagocytosis by DC (FIG. 3F). Results are triplicates (X±SD) and representative of three independent experiments. * denotes statistically significant differences using the Student t′ test at p<0.001.
BM cells were flushed from the tibias and femurs of BALB/c mice with culture medium composed of RPMI 1640 medium (Invitrogen Life Technologies) supplemented with 10% heat-inactivated FBS (Invitrogen), sodium pyruvate, 50 μM 2-ME (Sigma), 10 mM HEPES (pH 7.4), and penicillin/streptomycin (Invitrogen). After one centrifugation, BM cells were resuspended in Tris-ammonium chloride for 2 min to lyse RBC. After one more centrifugation, BM cells (1×10^6 cells/ml) were cultured in medium supplemented with 100 ng/ml recombinant mouse FLT3 ligand (R&D systems) in 6-well plates (Costar Corning). After 7 days, the non-adherent and loosely adherent cells were harvested with Versene, washed and transferred in 12-well plates (1.5×10^6 cells/plate) for cocultures with tumour cells.
In 12-well plates, […] adherent CT26 cells were labelled with Celltracker Green (Calbiochem) and then incubated with drugs. In some experiments viable CT26 were coated with 2 μg/10^6 cells of chicken anti-CRT antibody (ABR affinity bioreagents) or an isotype control for 30 min prior to washing and feeding to dendritic cells Cs. Alternatively CT26 cells were coated with 2 μg/10^6 cells of rCRT on ice for 30 min and washed twice prior to addition to dendritic cells. Cells were then harvested, washed three times with medium supplemented with FBS and cocultured with immature DC for 2 hours at a ratio of 1:1 and 1:5. At the end of the incubation, cells were harvested with versene, pooled with non-adherent cells present in the supernatant, washed and stained with CD11c-FITC antibody. Phagocytosis was assessed by FACS analysis of double positive cells. Phagocytic indexes refer to the ratio between values obtained at 4° C. and values obtained at 37° C. of co-incubation between DC and tumour cells.

[9] = tested on: CT26 tumour cells; test: Local immune response: tumour cells injected into foot pad, IFN-γ secretion by draining popliteal lymph node cells (ELISA); format: in vivo, Balb/c mice; settings: cells injected into the foot pad
Experimental: FIG. 4B: Priming of T cell responses depending on CRT. CT26 tumour cells were left untransfected or transfected with the indicated siRNAs, then treated with medium alone, mitomycin C or mitoxantrone and injected into the right food pad of Balb/c mice. Five days later, mononuclear cells from the draining popliteal lymph nodes were challenged with freeze-thawed CT26 cells, and IFN-γ secretion was assessed at 72 hrs.
FIG. 4C: Exogenous supply of CRT enhances the immunogenicity of CRT-negative dying cells. CT26 cells lacking CRT expression after depletion of CRT with a siRNA and mitoxantrone treatment or after mitomycin treatment were coated with rCRT (inserts) and then injected in the food pad, followed by assessment of the IFN-γ secretion by cells from the draining lymph nodes as in FIG. 4B.
as §2

[10] = dying CT26 cells treated with agent injected into one flank, live tumour cells in opposite flank 8 days later

## tunicamycin
[1]; [10]
  immunogenicity of cell death (protection against tumour growth, anti-tumour vaccination): failed to induce immunogenic apoptosis

## C/C=C(/C)C(=O)O[C@H]1C(C)=C2[C@H]([C@@H]1OC(=O)CCCCCCC)[C@@](C)(OC(C)=O)C[C@H](OC(=O)CCC)[C@@]1(O)[C@H]2OC(=O)[C@@]1(C)O [thapsigargin]
[1]; [10]
  immunogenicity of cell death (protection against tumour growth, anti-tumour vaccination): failed to induce immunogenic apoptosis

## CCCCCCCCCCCCC/C=C/[C@@H](O)[C@H](CO)NC(C)=O [C2 ceramide, C2-ceramide]
[1]; [10]
  immunogenicity of cell death (protection against tumour growth, anti-tumour vaccination): failed to induce immunogenic apoptosis

## VKKKKIKREIKI-lkaravafsekv (VKKKKIKREIKILKARAVAFSEKV; Artificial sequence including a fragment of GADD34 and a translocation motif) [mutant control peptide]
[2]
  exposure of calreticulin, HCT116 cells: did not induce calreticulin exposure
[3]
  exposure of calreticulin, CT26 cells: did not induce calreticulin exposure

## CC[C@@]1(O)C(=O)OCc2c1cc1n(c2=O)Cc2cc3ccccc3nc2-1 [camptothecin]
[1]; [10]
  immunogenicity of cell death (protection against tumour growth, anti-tumour vaccination): failed to induce immunogenic apoptosis

## COC[C@@H]([C@H](O)[C@H](O)C(=O)NCC[C@H](C)c1nc(/C=C/C[C@@H]2O[C@]3(C[C@@H](O)[C@@H]2C)O[C@H]([C@H](C[C@H](O)[C@H](C)[C@H](O)[C@H](C)/C=C(C)/C(C)=C/C=C/C(C)=C\C#N)OC)[C@H](OP(=O)(O)O)C3(C)C)co1)N(C)C [calyculin A]
[1]; without cell death inducer
  induction of immunogenic cell death by the inhibitor alone: not sufficient to induce immunogenic cell death
[4]
  induction of CRT exposure at the cell surface: efficiently induced

## CCOc1ccc(-c2nc3ccc(-c4nc5ccc(N6CCN(C)CC6)cc5[nH]4)cc3[nH]2)cc1 [Hoechst 33342]
[1]; [10]
  immunogenicity of cell death (protection against tumour growth, anti-tumour vaccination): failed to induce immunogenic apoptosis

## C[C@H]1CCC/C=C/[C@@H]2C[C@H](O)C[C@H]2[C@H](O)/C=C/C(=O)O1 [brefeldin, brefeldin A]
[1]; [10]
  immunogenicity of cell death (protection against tumour growth, anti-tumour vaccination): failed to induce immunogenic apoptosis

## CO[C@@]12[C@H](COC(N)=O)C3=C(C(=O)C(C)=C(N)C3=O)N1C[C@@H]1N[C@@H]12 [mitomycin C]
[5]
  therapeutic effect of single agent on established tumours, immunocompetent mice: no major therapeutic effect
[1]; mouse, in vivo
  immunogenicity of cell death (protection against tumour growth, anti-tumour vaccination): failed to induce immunogenic apoptosis
[6]
  therapeutic effect of single agent on established tumours, nu/nu mice: no major therapeutic effect
[4]
  induction of CRT exposure at the cell surface: cannot promote CRT exposure on tumor cell surface
  induction of ecto-CRT and/or ecto-Erp57: fail to induce ecto-CRT and/or ecto-Erp57

## COC(=O)C[C@H](NC(=O)[C@H](C)NC(=O)[C@@H](NC(=O)OCc1ccccc1)C(C)C)C(=O)CF [Z-VAD-fmk] (Cbz-Val-Ala-Asp(OMe)-CH2F)
[1]; combined with doxorubicin
  effect on immunogenicity of doxorubicin-elicited cell death: reduces the immunogenicity of doxorubicin-elicited cell death

## 5′-rCrCrGrCUrGrGrGUrCrGrArAUrCrRrArATT-3′ [CRT-specific siRNA]
[7]; cells injected into the flank of Balb/c mice
  immunogenicity of mitoxantrone-treated CT26 cells (efficacy of anti-tumour vaccination): compromised the immunogenicity of mitoxantrone-treated CT26 cells
[8]
  phagocytosis of anthracyclin-treated tumour cells by DC after siRNA knockdown of CRT: suppressed the phagocytosis of anthracyclin-treated tumour cells
[9]
  immunogenicity of mitoxantrone-treated CT26 cells (interferon-γ production by T cells from popliteal lymph node): compromised the immunogenicity of mitoxantrone-treated CT26 cells

## CC(=O)[C@]1(O)Cc2c(O)c3c(c(O)c2[C@@H](O[C@H]2C[C@H](N)[C@H](O)[C@H](C)O2)C1)C(=O)c1ccccc1C3=O [idarubicin]
[1]; [10]
  immunogenicity of cell death (protection against tumour growth, anti-tumour vaccination): elicited immunogenic cell death

## COc1cc([C@@H]2c3cc4c(cc3[C@@H](O[C@@H]3O[C@@H]5CO[C@@H](C)O[C@H]5[C@H](O)[C@H]3O)[C@H]3COC(=O)[C@H]23)OCO4)cc(OC)c1O [etoposide]
[5]
  therapeutic effect of single agent on established tumours, immunocompetent mice: no major therapeutic effect
[7]; sham-coated cells treated with etoposide
  immunogenicity of sham-coated etoposide-treated cells: poorly immunogenic
[1]; [10]
  immunogenicity of cell death (protection against tumour growth, anti-tumour vaccination): failed to induce immunogenic apoptosis
[6]
  therapeutic effect of single agent on established tumours, nu/nu mice: no major therapeutic effect
[4]
  induction of ecto-CRT and/or ecto-Erp57: fail to induce ecto-CRT and/or ecto-Erp57
